One compound from article PMC9994261 (Cell, 2023) can be followed below.

Molecules are shown by their SMILES. In brackets after ≈: the same amount, converted by molar mass. Where two headings read alike, the source gives them in different places.

Data set [1] in a line: in vivo. Conditions: male, Swiss, mouse, po; for AUC: 30 mg/kg, oral 30 mg/kg.
Data set [2] concerns Mtb methylated ribosome. The data set can be described thus: Mtb in vitro translation assay with methylated (erythromycin-treated) ribosome. The data set is classed as biochemical, Mycobacterium tuberculosis. The conditions noted are these: read-out: Translation inhibition of Mtb methylated ribosome (IC50 μM).
Data set [3] in a line: in vitro. Format: in vitro ADME. Conditions: human, Caco-2; read-out: Permeability in Caco2 cells (Papp). On the technique in general: Caco-2 monolayers are a common model of the intestinal barrier.
The nature of data set [4]: physchem. Conditions: pH 7.4.
Data set [5] is classed as in vitro ADME.
Data set [6] concerns GFP-expressing Mtb H37Rv in RAW264.7 macrophages. The data set can be described thus: Intramacrophage assay (MIC for Mtb in macrophages). The conditions noted are these: Mycobacterium tuberculosis, H37RV; read-out: MIC for Mtb tuberculosis in macrophages. Format: cell-based, Mycobacterium tuberculosis.
The format of data set [7] is in vitro ADME. The source holds these as a separate data set.
Data set [8] concerns Mtb H37Rv. In words: microbe, parasite or virus in culture. Format: cell-based, Mycobacterium tuberculosis. The conditions noted are these: Mycobacterium tuberculosis, H37RV; read-out: MIC for Mtb in liquid culture.
The format of data set [9] is in vitro ADME, human. On the procedure: The metabolic stability of test compounds was determined as described.[57]^,[58] Incubation and experimental conditions with human hepatic microsomal fractions (purchased from BD Gentest as a pooled batch from 6 donors) were as follows: microsomal proteins, 1 mg/mL; bovine serum albumin, 1 mg/mL; substrate, 5 μM; incubation duration, 20 min; cytochrome P-450 monooxygenases (CYPs) and flavin containing monooxygenases (FMOs) cofactor, 1 mM NADPH. Enzyme activity was stopped with 1 volume of acetonitrile. […] For each test compound and for each microsomal preparation, three incubations were prepared: absolute reference in buffer (without enzyme material, i.e., microsomes); incubation without NADPH cofactor (with microsomal fractions); and incubation with NADPH (with microsomal fractions). For most compounds, biotransformation, as observed in hepatic microsomal fractions in the presence of the NADPH cofactor, consists of oxidative reactions catalyzed by either CYPs or FMOs. In these conditions, the percentage of total metabolism, which corresponds to oxidative metabolism, was determined as follows: [% total metabolism] ≈ [% oxidative metabolism] = [unchanged compound (UC) peak area − NADPH UC peak area + NADPH] × 100%, where NADPH corresponds to the enzyme cofactor for oxidation reactions catalyzed by either CYP or FMO.

Data set [10] is classed as in vitro ADME. This is another data set of the same source.
The conditions of data set [11]: pH 2, 50% acetonitrile/water.
Data set [12] concerns Mtb ribosome. The data set is classed as biochemical, Mycobacterium tuberculosis. The conditions noted are these: read-out: Inhibition of Mtb translation (IC50 μM).
Data set [13] addresses T1, CYP3A4 (Homo sapiens, UniProt P08684).
T1 construct: human liver microsomes (purchased from BD Gentest as a pooled batch from 150 donors); tissue BD Gentest Cat#452117; host or cells: pooled human liver microsomes (150 donors)
In words: CYP3A4 reversible inhibition in human liver microsomes. The data set is classed as in vitro ADME. The procedure: Incubations were performed with 0.1 mg/mL human liver microsomes (purchased from BD Gentest as a pooled batch from 150 donors) in a final incubation volume of 0.25 mL. The incubation medium contained 0.05 M phosphate buffer (pH 7.4) containing an NADPH regenerating system (including 1.3 mM NADP, 3.3 mM glucose 6-phosphate,3.3 mM MgCl2, and 1.0 U/mL glucose 6-phosphate dehydrogenase). Probe CYP3A4 substrates (midazolam at 3 μM and testosterone at 50 μM), were incubated for 10 and 30 min, respectively, with increasing concentrations of GM, MGM or CGM (concentration range: 1 - 30 μM). The reaction was stopped by adding acetonitrile to precipitate the proteins. The incubation mixtures were then centrifuged for 5 min at 10,000 × g, and an aliquot of the supernatant was analyzed using high-performance liquid chromatography coupled to mass spectrometry for the assessment of 1’-hydroxymidazolam and 6β-hydroxytestosterone metabolite formation.
For orientation: Microsomes from liver hold many membrane-bound enzymes, among them those of drug oxidation.

The nature of data set [14]: physchem. Format: physicochemical.

T1 sequence (P08684 whole entry): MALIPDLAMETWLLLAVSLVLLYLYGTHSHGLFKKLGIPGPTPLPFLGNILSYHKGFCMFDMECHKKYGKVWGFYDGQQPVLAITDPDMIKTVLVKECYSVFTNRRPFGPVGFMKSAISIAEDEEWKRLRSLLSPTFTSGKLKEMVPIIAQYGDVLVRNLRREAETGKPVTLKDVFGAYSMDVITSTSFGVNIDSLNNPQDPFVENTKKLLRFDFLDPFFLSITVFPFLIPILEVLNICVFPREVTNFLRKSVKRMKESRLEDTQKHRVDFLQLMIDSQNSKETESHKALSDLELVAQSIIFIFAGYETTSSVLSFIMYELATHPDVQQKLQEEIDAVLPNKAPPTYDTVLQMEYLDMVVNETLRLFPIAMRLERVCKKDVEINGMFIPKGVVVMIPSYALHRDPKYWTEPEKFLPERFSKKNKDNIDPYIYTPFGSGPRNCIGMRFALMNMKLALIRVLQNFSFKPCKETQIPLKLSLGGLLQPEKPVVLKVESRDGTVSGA

`CO/N=C1\C[C@@H](C)O[C@@H](O[C@@H]2[C@@H](C)[C@H](O[C@H]3C[C@@](C)(O)[C@@H](O)[C@H](C)O3)[C@@H](C)C(=O)O[C@H]([C@@H](C)CO[C@@H]3O[C@H](C)[C@@H](O)[C@@H](OC)[C@H]3OC)[C@H](C)[C@@H](OC(=O)CC(C)C)[C@@H](C)C(=O)[C@@](C)(OC(=O)NCc3ccccc3)C[C@@H]2C)[C@@H]1O` [SEQ-416, [(2R,3S,4R,5R,7S,9S,10S,11R,12S,13R)-7-(benzylcarbamoyloxy)-12-[(2R,4R,5S,6S)-4,5-dihydroxy-4,6-dimethyl-tetrahydropyran-2-yl]oxy-2-[(1S)-2-[(2R,3R,4R,5R,6R)-5-hydroxy-3,4-dimethoxy-6-methyl-tetrahydropyran-2-yl]oxy-1-methyl-ethyl]-10-[(2S,3R,4E,6R)-3-hydroxy-4-methoxyimino-6-methyl-tetrahydropyran-2-yl]oxy-3,5,7,9,11,13-hexamethyl-6,14-dioxo-oxacyclotetradec-4-yl] 3-methylbutanoate]: the bioavailability in data set [1] was determined as 21%. The AUC came to 4800 ng·h/mL in data set [1] (AUC in lung @30 mg/kg, lung) and 4000 ng·h/mL in [1] (AUC in plasma @30 mg/kg, plasma). Moreover, the IC50 stood at 0.031 µM in [2]; 0.044 µM in [12]; 3 µM in data set [13] (midazolam, read-out: CYP3A4 inhibition, IC50 with midazolam as substrate); 10 µM in [13] (testosterone, read-out: CYP3A4 inhibition, IC50 with testosterone as substrate (T)). Further, in data set [3], the Papp amounted to 10.4 ×10⁻⁶ cm/s. The logD in [4] is 4.5. Also, the “Metabolic degradation/clearance from human liver microsomes” value in [5] is 0.057 mL/h/10^6 hepatocytes. The MIC in data set [6] came out at 0.63 µM (≈ 0.709 µg/mL); in data set [8], 0.15 µM (≈ 0.169 µg/mL). Further, in data set [7], the “Metabolic stability in mouse liver microsomes (% metabolized compound after 20 min)” value is 25%. Further, the “Metabolic stability in human liver microsomes (% metabolized compound after 20 min)” value in data set [9] (20 min incubation) came out at 40%. Further, the “Metabolic stability in human liver microsomes (% metabolized compound after 20 min), (K)” value in [9] (in presence of ketoconazole CYP3A inhibitor (K)) is on record as 0.5(K) %. The “Metabolic stability in human liver microsomes (% metabolized compound after 20 min), (Q)” value in data set [9] (in presence of quinidine CYP2D6 inhibitor (Q)) is “/35(Q) %”. Also, the “Metabolic stability in rat liver microsomes (% metabolized compound after 20 min)” value in data set [10] is 22%. The “Chemical stability: t/12@pH 2” value in [11] is listed as “∼6 h”. Besides, the solubility in data set [14] (MCT pH 7.4, read-out: Solubility: MCT@pH 7.4) was found to be 599 µg/mL (≈ 532 µM); in data set [14] (aqueous buffer, PBS pH 7.4, read-out: Solubility: PBS@pH 7.4), 22 µg/mL (≈ 19.5 µM).

In general, bioavailability refers to dose-corrected exposure relative to a reference, in per cent. The term AUC denotes concentration integrated over time. Low readings indicate less exposure, high ones more exposure. The IC50 is the point on the concentration scale where inhibition reaches its midpoint. As a reminder, the Papp is a coefficient for how fast a substance crosses the barrier. By logD is commonly meant lipophilicity at a set pH, counting ionised and neutral species. A low value points to lower lipophilicity. What is called solubility is the dissolved amount per volume that the medium holds.
